Source: patent publication US8288410B2, “3-substituted quinolinium and 7H-indolo[2,3-c]quinolinium salts as new antiinfectives” (Florida Agricultural and Mechanical University, priority 2008, dated 2012)
Read-outs that look alike come from different tables or passages of the source.

What was measured:
[1] = tested on: Candida albicans ATTC 90028; experiment: Antifungal susceptibility testing, Candida albicans; assay type: cell-based; conditions: for Ca IC50 / Ca MFC / Ca MIC: Table 1
Method: (§1) Using standard susceptibility tests, the compounds of the invention were determined to be active against MRSA, C. neoformans and several other bacteria, fungi and protozoa. More specifically, the antibacterial and antifungal testing was carried out in the following manner. Cryptococcus neoformans ATCC 90113 and MRSA were obtained from the American Type Culture Collection (Manassas. Va.). Several others including Candida albicans ATTC 90028, Aspergillus fumigatus ATCC 90906 and Mycobacterium intracellulare (M. intracellulare) ATCC 23086 were also procured. Susceptibility testing was performed using a modified version of the National Committee for Clinical Laboratory Standards method. M. intracellulare was tested using a modified method of Franzblau, et al., J. Clin. Microbiol., 1998, 36, 362-366. DMSO solutions of samples were serially diluted in saline, and transferred in duplicate to 96 well microplates. Microbial suspensions were diluted in the broth to afford desired colony forming units/mL according to the 0.5 McFarland Standard [C. Albicans: either Saboraud Dextrose broth (SDB) or RPMI 1640, C. neoformans: SDB, A fumigatus: either YM broth (for MICS) or RPMI-1640+5% Alamar Blue.] After adding microbial cultures to the sampled afforded a final volume of 200 μL and final test concentration starting with 20 μg/mL, plates were read prior to and after final incubation using either fluorescence at 544ex/590em (M intracellulare, A. fumigatus) using the Polarstar galaxy reader (Biotek Instruments, Vermont). Growth (saline only), solvent and blank (media only) controls were included on each test plate. Drug controls [Ciprofloxacin (ICN Biomedicals, Ohio) for bacteria and Amphotericin B (ICN Biomedicals, Ohio) for fungi] were included in each assay. Percent growth was calculated and plotted versus test concentration to afford IC50 (sample concentration that affords 50% inhibition or growth of the organism). The minimum inhibitory concentration (MIC) was determined by visually inspecting the plate, and is defined as the lowest test concentration that allows no detectable growth (for Almar Blue assays, no color change from blue to pink).

[2] = tested on: Cryptococcus neoformans ATCC 90113; experiment: Antifungal susceptibility testing, Cryptococcus neoformans; assay type: cell-based; conditions: for Cn MFC / Cn MIC / Cn IC50: Table 1
Method: as §1

[3] = tested on: Aspergillus fumigatus ATCC 90906; experiment: Antifungal susceptibility testing, Aspergillus fumigatus; assay type: cell-based
Method: as §1

[4] = tested on: MRSA; experiment: Antibacterial susceptibility testing, MRSA; assay type: cell-based, methicillin resistant Staphylococcus aureus; conditions: for MRS IC50 / MRS MFC / MRS MIC: Table 1
Method: as §1

SMILES | Ca IC50 [1] | Ca MFC [1] | Ca MIC [1] | Cn MFC [2] | Cn MIC [2] | A fu IC50 ([3]; Table 1, Aspergillus fumigatus) | A fu MFC ([3]; Table 1, Aspergillus fumigatus) | A fu MIC ([3]; Table 1, Aspergillus fumigatus) | MRS IC50 [4] | MRS MFC [4] | MRS MIC [4] | Cn IC50 [2] | other results
c1ccc(Nc2cc3ccccc3[n+](CCCCCC3CCCCC3)c2)cc1 [JRE-3-19-1] |  |  |  |  |  |  |  |  |  |  |  |  | IC50 ([1]; ATTC90028, Table 2, read-out: Ca IC50): 1 µg/mL; MFC ([1]; ATTC90028, Table 2, read-out: Ca MFC): 13 µg/mL; MIC ([1]; ATTC90028, Table 2, read-out: Ca MIC): 3.1 µg/mL; IC50 ([2]; ATCC90113, Table 2, read-out: Cn IC50): 0.55 µg/mL; MFC ([2]; ATCC90113, Table 2, read-out: Cn MFC): 6.3 µg/mL; MIC ([2]; ATCC90113, Table 2, read-out: Cn MIC): 0.78 µg/mL; A fu MFC [3]: 25 µg/mL; A fu MIC [3]: 1.6 µg/mL; IC50 ([3]; ATCC90906, Table 2, Aspergillus fumigatus, read-out: A fu IC50): 1 µg/mL; IC50 ([4]; Staphylococcus aureus, Table 2, read-out: MRSA IC50): 0.85 µg/mL; MFC ([4]; Staphylococcus aureus, Table 2, read-out: MRSA MFC): 6.3 µg/mL; MIC ([4]; Staphylococcus aureus, Table 2, read-out: MRSA MIC): 1.6 µg/mL
[I-].[O-][S+](c1ccc(F)cc1)c1cc2ccccc2[n+](CCCCCc2ccccc2)c1 (centres unmarked) [XYZ-IV-84] | — ((-) = >20 μg/mL) | — ((-) = >20 μg/mL) | — ((-) = >20 μg/mL) | — ((-) = >20 μg/mL) | — ((-) = >20 μg/mL) | — ((-) = >20 μg/mL) | — ((-) = >20 μg/mL) | — ((-) = >20 μg/mL) | 0.80 µg/mL | 20 µg/mL | 5.0 µg/mL |  | 
[I-].[O-][S+](c1cccc(Br)c1)c1cc2ccccc2[n+](CCCCCc2ccccc2)c1 (centres unmarked) [XYZ-V-29] | — ((-) = >20 μg/mL) | — ((-) = >20 μg/mL) | — ((-) = >20 μg/mL) | 20 µg/mL | 10 µg/mL | — ((-) = >20 μg/mL) | — ((-) = >20 μg/mL) | — ((-) = >20 μg/mL) | 0.90 µg/mL | — ((-) = >20 μg/mL) | 2.5 µg/mL | 5.5 µg/mL | 
[I-].[O-][S+](c1ccc(Br)cc1)c1cc2ccccc2[n+](CCCCCc2ccccc2)c1 (centres unmarked) [XYZ-V-20] | — ((-) = >20 μg/mL) | — ((-) = >20 μg/mL) | — ((-) = >20 μg/mL) | — ((-) = >20 μg/mL) | 10 µg/mL | — ((-) = >20 μg/mL) | — ((-) = >20 μg/mL) | — ((-) = >20 μg/mL) | 0.50 µg/mL | — ((-) = >20 μg/mL) | 2.5 µg/mL | 7.0 µg/mL | 
COc1cccc([S+]([O-])c2cc3ccccc3[n+](CCCCCc3ccccc3)c2)c1.[I-] (centres unmarked) [XYZ-V-23] | — ((-) = >20 μg/mL) | — ((-) = >20 μg/mL) | — ((-) = >20 μg/mL) | — ((-) = >20 μg/mL) | — ((-) = >20 μg/mL) | — ((-) = >20 μg/mL) | — ((-) = >20 μg/mL) | — ((-) = >20 μg/mL) | 2.50 µg/mL | — ((-) = >20 μg/mL) | 10 µg/mL |  | 
C[n+]1cc(Sc2ccccc2)cc2ccccc21.[I-] [XYZ-III-53] | — ((-) = >20 μg/mL) | — ((-) = >20 μg/mL) | — ((-) = >20 μg/mL) | — ((-) = >20 μg/mL) | — ((-) = >20 μg/mL) | — ((-) = >20 μg/mL) | — ((-) = >20 μg/mL) | — ((-) = >20 μg/mL) | — ((-) = >20 μg/mL) | — ((-) = >20 μg/mL) | — ((-) = >20 μg/mL) | — ((-) = >20 μg/mL) | 
COc1ccccc1Sc1cc2ccccc2[n+](CCCCCc2ccccc2)c1.[I-] [XYZ-IV-18] | 3.0 µg/mL | — ((-) = >20 μg/mL) | 10 µg/mL | 5.0 µg/mL | 2.5 µg/mL | 0.09 µg/mL | 10 µg/mL | 1.3 µg/mL | 0.25 µg/mL | 5.0 µg/mL | 0.63 µg/mL | 0.85 µg/mL | 
Clc1ccccc1Sc1cc2ccccc2[n+](CCCCCc2ccccc2)c1.[I-] [XYZ-III-74] | — ((-) = >20 μg/mL) | — ((-) = >20 μg/mL) | — ((-) = >20 μg/mL) | 20 µg/mL | 5.0 µg/mL | 0.70 µg/mL | — ((-) = >20 μg/mL) | 2.5 µg/mL | 1.0 µg/mL | 10 µg/mL | 2.5 µg/mL | 2.0 µg/mL | 
Fc1ccc(Sc2cc3ccccc3[n+](CCCCCc3ccccc3)c2)cc1.[I-] [XYZ-III-63] | 20 µg/mL | — ((-) = >20 μg/mL) | — ((-) = >20 μg/mL) | — ((-) = >20 μg/mL) | — ((-) = >20 μg/mL) |  | — ((-) = >20 μg/mL) |  | 5.5 µg/mL | — ((-) = >20 μg/mL) | 10 µg/mL | 7.0 µg/mL | 
C[n+]1cc(Sc2ccc(C(F)(F)F)cc2)cc2ccccc21.[I-] [XYZ-III-65] | — ((-) = >20 μg/mL) | — ((-) = >20 μg/mL) | — ((-) = >20 μg/mL) | — ((-) = >20 μg/mL) | — ((-) = >20 μg/mL) | — ((-) = >20 μg/mL) | — ((-) = >20 μg/mL) | — ((-) = >20 μg/mL) | — ((-) = >20 μg/mL) | — ((-) = >20 μg/mL) | — ((-) = >20 μg/mL) | — ((-) = >20 μg/mL) | 
Brc1ccc(Sc2cc3ccccc3[n+](CCCCCc3ccccc3)c2)cc1.[I-] [XYZ-III-89] | 15 µg/mL | — ((-) = >20 μg/mL) | — ((-) = >20 μg/mL) | 10 µg/mL | 2.5 µg/mL | 1.5 µg/mL | — ((-) = >20 μg/mL) | 2.5 µg/mL | 1.5 µg/mL | 10 µg/mL | 2.5 µg/mL | 1.0 µg/mL | 
FC(F)(F)c1ccccc1Sc1cc2ccccc2[n+](CCCCCc2ccccc2)c1.[I-] [XYZ-IV-25] | 0.4 µg/mL | 2.5 µg/mL | 1.3 µg/mL | 0.63 µg/mL | 0.16 µg/mL | 0.03 µg/mL | 10 µg/mL | 0.08 µg/mL | 0.05 µg/mL | 2.5 µg/mL | 0.16 µg/mL | 0.06 µg/mL | 
[I-].[O-][S+](c1cc(C(F)(F)F)cc(C(F)(F)F)c1)c1cc2ccccc2[n+](CCCCCc2ccccc2)c1 (centres unmarked) [XYZ-V-13] | 10 µg/mL | 20 µg/mL | 20 µg/mL | 20 µg/mL | 5.0 µg/mL | — ((-) = >20 μg/mL) | — ((-) = >20 μg/mL) | — ((-) = >20 μg/mL) | 0.20 µg/mL | 10 µg/mL | 0.63 µg/mL | 3.0 µg/mL | 
[I-].[O-][S+](c1ccc(C(F)(F)F)cc1)c1cc2ccccc2[n+](CCCCCc2ccccc2)c1 (centres unmarked) [XYZ-V-27] | — ((-) = >20 μg/mL) | — ((-) = >20 μg/mL) | — ((-) = >20 μg/mL) | 20 µg/mL | 10 µg/mL | — ((-) = >20 μg/mL) | — ((-) = >20 μg/mL) | — ((-) = >20 μg/mL) | 0.50 µg/mL | — ((-) = >20 μg/mL) | 1.3 µg/mL | 6.0 µg/mL | 
[I-].[O-][S+](c1cc2ccccc2[n+](CCCCCc2ccccc2)c1)c1ccccc1Cl (centres unmarked) [XYZ-V-9] | — ((-) = >20 μg/mL) | — ((-) = >20 μg/mL) | — ((-) = >20 μg/mL) | — ((-) = >20 μg/mL) | 20 µg/mL | — ((-) = >20 μg/mL) | — ((-) = >20 μg/mL) | — ((-) = >20 μg/mL) | 0.75 µg/mL | — ((-) = >20 μg/mL) | 2.5 µg/mL | 10 µg/mL | 
